“Also recorded” adds a separate entry of the source.
What was measured:
[1] = system: human fibroblast BJ cells with therapy-induced senescence by doxorubicin; test: Screen for senolytic effect in cells with therapy-induced senescence; type: cell-based; details: senescent BJ cells versus control uninduced cells; FIG. 1A, 2A
Experimental: (§1) Experiments were conducted during development of embodiments herein to screen for diet-derived dietary substances, natural products, blood chemicals, etc. that provide senolytic activity with reduced “off-target” toxic side effects. A library of diet-derived blood chemicals was screened to identify compounds that selectively induce cell death in human fibroblast BJ cells with therapy-induced senescence by doxorubicin (FIG. 1A). The top candidates identified were tested in a second screen (FIG. 1B) using human fibroblast HCA2 cells with senescence induced by Nutlin3a (p53 activator), RO3306 (CDK1 inhibitor), and BI2436 (PLK1 inhibitor).
(§2) Experiments were conducted during development of embodiments herein to screen for natural products that provide senolytic activity. A library of diet-derived blood chemicals was screened to identify compounds that selectively induce cell death in human fibroblast BJ cells with therapy-induced senescence by doxorubicin (FIG. 1A). The top candidates identified were tested in a second screen (FIG. 1B) using human fibroblast HCA2 cells with senescence induced by Nutlin3a (p53 activator), RO3306 (CDK1 inhibitor), and BI2436 (PLK1 inhibitor). […] Temporal mechanistic studies of VS were also conducted (FIG. 8A-B).

[2] = system: human fibroblast HCA2 cells with senescence induced by Nutlin3a, RO3306 and BI2436; test: Second screen for senolytic effect in induced-senescent HCA2 cells; type: cell-based; details: senescent HCA2 cells versus control uninduced cells; FIG. 1B, 2B
Experimental: as §1, §2

[3] = system: aged mice; test: Aging-related phenotypes in aged mice after oral gavage; type: in vivo
Source text: In some embodiments, provided herein is the administration of VS as a pharmaceutical or nutraceutical composition to treat or prevent pathogenic senescence-related diseases (e.g., liver and lung fibrosis, atherosclerosis, diabetes, osteoarthritis, etc.). In some embodiments, provided herein is the administration of VS as a pharmaceutical or nutraceutical composition to treat or prevent various diverse human cancers, alone or in combination with anti-cancer therapies that result in therapy-induced senescence.

[4] = system: bleomycin-induced lung fibrosis; test: Bleomycin-induced lung fibrosis; type: in vivo; details: FIG. 4A-D
[5] = system: CCl4-induced liver fibrosis; test: CCl4-induced liver fibrosis; type: in vivo; details: FIG. 5A-D
[6] = system: A549 xenograft; test: A549 xenograft model combined with senescence induction; type: in vivo; details: FIG. 6A-B
[7] = system: senescent cells; test: Rescue of VS-induced cell death by NAC; type: cell-based; details: FIG. 7A-C
Experimental: as §2

[8] = system: apolipoprotein E-deficient (ApoE-/-) mice; test: Atherosclerosis model in ApoE-/- mice; type: in vivo
Source text: Atherosclerosis-prone apolipoprotein E-deficient (ApoE^−/−) mice were used that display poor lipoprotein clearance with subsequent accumulation of cholesterol ester-enriched particles in the blood, which promote the development of atherosclerotic plaques. Compared to wild type control mice with no disease (WT-ND), the ApoE−/− mice developed atherosclerosis-like disease with accumulation of cholesterol that was stained with Sudan IV showing orange-red color (FIG. 9A, left).

[9] = system: animal models; details: cited from earlier work
[10] = system: type 2 diabetes; details: cited from earlier work
[11] = aged mice, oral gavage, kidney tissues

SMILES: O=S(=O)([O-])[O-].[O]=[V+2] [VS, vanadyl sulfate]
- cell death in senescent BJ cells [1]: selectively triggers cell death; also recorded: selectively induced cell death
- cell death in senescent HCA2 cells [2]: selectively triggers cell death; also recorded: selectively induced cell death
- aging / senescent cells in vivo ([3]; FIG. 3A-F): ameliorates aging by eliminating senescent cells
- aging-related phenotypes ([3]; aged mice, oral gavage): improved
- serum urea levels ([3]; aged mice, oral gavage): reducing
- gene expression level of CDK inhibitor p16INK4a [3, 11]: reducing
- gene expression level of inflammatory cytokine IL-6 [3, 11]: reducing
- therapeutic efficacy in bleomycin-induced lung fibrosis [4]: shows therapeutic efficacy
- therapeutic efficacy in CCl4-induced liver fibrosis [5]: shows therapeutic efficacy
- tumor growth [6]: suppresses tumor growth
- rescue of VS-induced cell death by NAC [7]: can be rescued by NAC
- accumulation of cholesterol in atherosclerotic plaques ([8]; ApoE-/- mice, Sudan IV staining, quantitation, FIG. 9A): reduced
- overall total cholesterol level ([8]; ApoE-/- mice, FIG. 9B): reduced
- therapeutic efficacy in atherosclerosis model ([8]; FIG. 9A-B): provides therapeutic efficacy
- hyperglycemia [9]: reduce
- insulin resistance [9]: reduce
- hepatic and muscle insulin sensitivity [10]: improve
